Measured values from PMC11539244, “Relative inhibitory activities of newly developed diazabicyclooctanes, boronic acid derivatives, and penicillin-based sulfone β-lactamase inhibitors against broad-spectrum AmpC β-lactamases” (Antimicrobial Agents and Chemotherapy, 2024).
Read-outs that look alike come from different tables or passages of the source.

Experiments:
CMY-2 = molecular target: T1, CMY-2 (Klebsiella pneumoniae, UniProt Q48434); assay: biochemical; set-up: species or system Citrobacter spp.
T1 construct: made in house; host or cells: E. coli TOP10, plasmid pUCp24

ADC-50 = ADC-50 (Acinetobacter baumannii, UniProt Q6DRA1); assay: IC50 of β-lactamase inhibitors, crude extract, ADC-50; type: biochemical, A. baumannii
FOX-5 = FOX-5 (Aeromonas allosaccharophila, UniProt Q9F4K3); assay: IC50 of β-lactamase inhibitors, crude extract, FOX-5; type: biochemical
CMY-42 = molecular target: T2, CMY-42 (Klebsiella pneumoniae, UniProt Q48434, V231S); assay: biochemical; set-up: species or system Citrobacter spp.
T2 construct: made in house; host or cells: E. coli TOP10, plasmid pUCp24

SRT-1 = SRT-1 (Serratia marcescens, UniProt P18539); assay: IC50 of β-lactamase inhibitors, crude extract, SRT-1; type: biochemical; conditions: crude extract of E. coli TOP10 recombinant strain, mean of triplicate
MOX-2 = MOX-2 (Aeromonas caviae, UniProt Q9L3G2); assay: IC50 of β-lactamase inhibitors, crude extract, MOX-2; type: biochemical
DHA-1 = DHA-1 (Morganella morganii, UniProt P94958); assay: IC50 of β-lactamase inhibitors, crude extract, DHA-1; type: biochemical
LAT-1 = LAT-1 (Citrobacter portucalensis, UniProt Q48443); assay: biochemical
ACT-17 = ACT-17 (Enterobacter asburiae, UniProt P05364); type: biochemical; conditions: crude extract of E. coli TOP10 recombinant strain, mean of triplicate
ACT-7 = ACT-7 (Enterobacter asburiae, UniProt B6V6L3); assay: biochemical
Ear-1 = Ear-1 (Klebsiella aerogenes, UniProt A0A0H3FRQ3); assay: IC50 of β-lactamase inhibitors, crude extract, Ear-1; type: biochemical
ACC-1 = ACC-1 (Hafnia alvei, UniProt Q9XB24); assay: IC50 of β-lactamase inhibitors, crude extract, ACC-1; type: biochemical
YRC-1 = YRC-1 (Yersinia ruckeri, UniProt Q20I87); assay: IC50 of β-lactamase inhibitors, crude extract, YRC-1; type: biochemical
MIR-17 = assay: IC50 of β-lactamase inhibitors, crude extract, MIR-17; type: biochemical, Enterobacter roggenkampii; conditions: crude extract of E. coli TOP10 recombinant strain, mean of triplicate
PDC-5 = molecular target: T3, PDC-5 (Pseudomonas aeruginosa, UniProt P24735, R79Q/T105A); assay: biochemical; set-up: species or system P. aeruginosa
T3 construct: made in house; host or cells: E. coli TOP10, plasmid pUCp24

PDC-382 = PDC-382 (Pseudomonas aeruginosa, UniProt P24735, T96I); assay: biochemical; set-up: species or system P. aeruginosa
PDC-1 = molecular target: T4, PDC-1 (Pseudomonas aeruginosa, UniProt P24735); assay: biochemical; set-up: species or system P. aeruginosa
T4 construct: made in house; host or cells: E. coli TOP10, plasmid pUCp24

E. coli TOP10 = assay: microbe, parasite or virus in culture; type: cell-based; conditions: Escherichia coli, TOP10; E. coli TOP 10; β-lactamase inhibitor alone; read-out: MIC values of inhibitor alone
Method: In order to assess the relative inhibitory activities of those BLI against AmpC β-lactamases, the corresponding blaampC genes without the original promoter sequences were amplified by PCR with specific primers, and corresponding amplicons were cloned into plasmid pUCp24, as described previously ([12], [13]). […] Cultures of E. coli TOP10 harboring recombinant plasmids and therefore producing the different AmpC tested were grown overnight at 37°C in Luria-Bertani agar medium containing amoxicillin (AMX) (50 µg/mL). The activity of the following acquired class C β-lactamases could therefore be evaluated, namely, ACC-1 (originally from Hafnia spp.), FOX-5 (from Aeromonas allosaccharophila), CMY-2 and CMY-42 (from Citrobacter spp.), DHA-1 (from Morganella morganii), ACT-7 and ACT-17 (from Enterobacter asburiae), MIR-17 (from Enterobacter roggenkampii), MOX-2 (from Aeromonas caviae), and LAT-1 (from Citrobacter portucalensis) ([5]). […] Altogether, these enzymes were chosen as representatives of clinically relevant class C β-lactamases being sources of intrinsic or acquired resistance to broad-spectrum β-lactams among most of the commonly identified Gram-negative bacteria in clinical practice.
MICs were determined in triplicate by broth microdilution (BMD) for CAZ and AMX, as well as their combinations with each β-lactamase inhibitor. CAZ, AMX, and CLA were purchased from Sigma-Aldrich (St. Louis, MO, USA). All others inhibitors (TAZ HY-W009168, AVI HY-14879, REL HY-16752, VAB HY-19930, NAC HY-109008, ZID HY-120859, TAN HY-109124, XER HY-136072, DUR HY-117974, EMT HY-103095) were purchased from MedChem Express (Luzern, Switzerland). The concentration of each β-lactamase inhibitor was chosen as the concentration used in the respective BL/BLI combination under development or commercially available, according to EUCAST or CLSI ([18], [19]). […] BMD assays were performed in cation-adjusted Mueller-Hinton (MH) broth (Bio-Rad, Marnes-la-Coquette, France) for all antibiotics or antibiotic combinations listed above, according to the EUCAST guidelines ([20]).

[1] = ADC-50, crude extract of E. coli TOP10 recombinant strain, mean of triplicate

FOX-5, sequence (Q9F4K3 entry or part of it): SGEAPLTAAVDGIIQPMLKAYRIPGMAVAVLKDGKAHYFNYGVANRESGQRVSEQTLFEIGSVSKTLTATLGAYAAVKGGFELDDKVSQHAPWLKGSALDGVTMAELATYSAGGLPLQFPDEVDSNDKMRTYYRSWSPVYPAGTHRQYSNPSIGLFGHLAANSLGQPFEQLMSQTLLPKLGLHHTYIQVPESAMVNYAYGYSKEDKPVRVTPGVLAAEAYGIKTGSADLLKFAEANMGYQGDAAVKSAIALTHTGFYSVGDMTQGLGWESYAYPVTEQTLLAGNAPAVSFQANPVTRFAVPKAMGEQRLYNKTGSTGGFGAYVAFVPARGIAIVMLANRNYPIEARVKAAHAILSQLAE
ACC-1, sequence (Q9XB24 entry or part of it): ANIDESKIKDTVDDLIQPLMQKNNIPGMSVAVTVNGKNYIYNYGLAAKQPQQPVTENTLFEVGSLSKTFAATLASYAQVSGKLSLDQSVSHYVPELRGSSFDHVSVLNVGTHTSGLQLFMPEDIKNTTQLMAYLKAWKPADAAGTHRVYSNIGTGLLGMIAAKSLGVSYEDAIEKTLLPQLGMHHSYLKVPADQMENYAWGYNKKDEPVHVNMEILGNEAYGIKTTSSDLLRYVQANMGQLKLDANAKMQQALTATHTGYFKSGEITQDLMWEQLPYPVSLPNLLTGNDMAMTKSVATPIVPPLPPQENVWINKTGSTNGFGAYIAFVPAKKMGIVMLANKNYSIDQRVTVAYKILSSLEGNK
T1 sequence (Q48434 21-381): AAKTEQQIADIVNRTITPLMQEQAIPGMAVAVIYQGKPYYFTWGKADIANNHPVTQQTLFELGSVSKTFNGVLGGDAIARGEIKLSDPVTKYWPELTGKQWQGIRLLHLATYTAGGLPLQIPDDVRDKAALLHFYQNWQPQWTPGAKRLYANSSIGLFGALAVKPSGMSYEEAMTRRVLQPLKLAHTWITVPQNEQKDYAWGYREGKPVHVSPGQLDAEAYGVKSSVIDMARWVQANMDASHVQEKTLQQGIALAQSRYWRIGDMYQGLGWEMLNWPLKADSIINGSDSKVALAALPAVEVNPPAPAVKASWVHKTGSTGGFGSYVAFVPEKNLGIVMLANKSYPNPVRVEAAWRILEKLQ
ACT-17, sequence (P05364 21-381): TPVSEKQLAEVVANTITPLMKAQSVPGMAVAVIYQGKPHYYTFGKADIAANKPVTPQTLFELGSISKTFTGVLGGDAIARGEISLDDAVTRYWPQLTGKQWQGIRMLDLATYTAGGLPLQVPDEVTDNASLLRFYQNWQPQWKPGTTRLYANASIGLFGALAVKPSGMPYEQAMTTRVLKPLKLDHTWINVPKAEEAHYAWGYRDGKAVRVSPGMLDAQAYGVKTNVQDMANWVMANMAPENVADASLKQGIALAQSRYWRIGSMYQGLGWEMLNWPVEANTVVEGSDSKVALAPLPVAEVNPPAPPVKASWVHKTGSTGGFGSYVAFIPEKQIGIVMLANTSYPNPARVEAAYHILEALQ
Ear-1, sequence (A0A0H3FRQ3 entry or part of it): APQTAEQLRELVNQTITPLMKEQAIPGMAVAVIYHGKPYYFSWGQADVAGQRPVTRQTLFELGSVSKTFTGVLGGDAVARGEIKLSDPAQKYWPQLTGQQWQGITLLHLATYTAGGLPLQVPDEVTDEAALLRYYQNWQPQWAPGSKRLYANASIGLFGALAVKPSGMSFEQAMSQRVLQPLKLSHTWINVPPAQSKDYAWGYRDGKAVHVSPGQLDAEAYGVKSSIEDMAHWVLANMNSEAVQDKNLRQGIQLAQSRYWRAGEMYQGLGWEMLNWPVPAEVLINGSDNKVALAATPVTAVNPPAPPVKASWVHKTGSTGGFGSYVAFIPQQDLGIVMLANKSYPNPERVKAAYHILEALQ
MOX-2, sequence (Q9L3G2 entry or part of it): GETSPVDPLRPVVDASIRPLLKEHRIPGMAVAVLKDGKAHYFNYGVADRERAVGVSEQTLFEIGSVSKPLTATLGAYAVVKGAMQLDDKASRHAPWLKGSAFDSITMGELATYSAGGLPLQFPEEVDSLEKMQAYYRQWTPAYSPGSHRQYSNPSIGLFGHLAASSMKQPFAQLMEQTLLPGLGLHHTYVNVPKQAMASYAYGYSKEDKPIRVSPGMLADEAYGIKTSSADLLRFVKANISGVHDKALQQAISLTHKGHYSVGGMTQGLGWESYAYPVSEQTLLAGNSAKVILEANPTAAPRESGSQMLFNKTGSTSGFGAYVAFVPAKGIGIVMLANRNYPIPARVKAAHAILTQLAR
PDC-382, sequence (P24735 27-397 T96I): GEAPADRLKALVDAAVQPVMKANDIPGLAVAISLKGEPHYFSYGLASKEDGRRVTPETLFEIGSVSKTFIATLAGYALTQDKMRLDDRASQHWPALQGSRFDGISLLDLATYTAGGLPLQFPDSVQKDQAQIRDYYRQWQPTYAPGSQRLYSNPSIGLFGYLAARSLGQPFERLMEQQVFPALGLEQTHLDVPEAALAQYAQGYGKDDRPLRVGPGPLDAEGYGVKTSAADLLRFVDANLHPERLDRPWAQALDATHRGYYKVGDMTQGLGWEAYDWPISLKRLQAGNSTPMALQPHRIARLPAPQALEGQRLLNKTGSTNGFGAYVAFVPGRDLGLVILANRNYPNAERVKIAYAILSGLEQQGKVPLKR
T4 sequence (P24735 27-397): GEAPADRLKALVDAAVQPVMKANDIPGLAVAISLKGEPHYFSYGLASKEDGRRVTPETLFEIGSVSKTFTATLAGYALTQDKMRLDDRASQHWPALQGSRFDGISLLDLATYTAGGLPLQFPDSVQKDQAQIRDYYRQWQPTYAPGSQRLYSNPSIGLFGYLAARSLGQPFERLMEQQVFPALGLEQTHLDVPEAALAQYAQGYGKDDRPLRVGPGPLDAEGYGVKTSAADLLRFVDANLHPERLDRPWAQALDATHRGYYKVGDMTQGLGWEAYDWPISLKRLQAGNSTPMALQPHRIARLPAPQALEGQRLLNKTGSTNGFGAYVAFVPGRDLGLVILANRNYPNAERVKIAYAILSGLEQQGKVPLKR
SRT-1, sequence (P18539 22-376): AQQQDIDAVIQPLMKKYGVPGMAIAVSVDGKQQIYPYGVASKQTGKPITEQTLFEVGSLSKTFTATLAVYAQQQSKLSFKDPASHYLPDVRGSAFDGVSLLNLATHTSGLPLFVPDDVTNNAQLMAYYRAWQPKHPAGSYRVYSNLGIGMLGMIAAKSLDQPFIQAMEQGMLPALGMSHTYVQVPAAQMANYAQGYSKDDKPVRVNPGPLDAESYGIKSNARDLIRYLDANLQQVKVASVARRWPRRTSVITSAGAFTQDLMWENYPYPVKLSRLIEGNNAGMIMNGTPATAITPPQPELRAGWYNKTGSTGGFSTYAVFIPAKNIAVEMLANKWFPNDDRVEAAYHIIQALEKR
T3 sequence (P24735 27-397 R79Q/T105A): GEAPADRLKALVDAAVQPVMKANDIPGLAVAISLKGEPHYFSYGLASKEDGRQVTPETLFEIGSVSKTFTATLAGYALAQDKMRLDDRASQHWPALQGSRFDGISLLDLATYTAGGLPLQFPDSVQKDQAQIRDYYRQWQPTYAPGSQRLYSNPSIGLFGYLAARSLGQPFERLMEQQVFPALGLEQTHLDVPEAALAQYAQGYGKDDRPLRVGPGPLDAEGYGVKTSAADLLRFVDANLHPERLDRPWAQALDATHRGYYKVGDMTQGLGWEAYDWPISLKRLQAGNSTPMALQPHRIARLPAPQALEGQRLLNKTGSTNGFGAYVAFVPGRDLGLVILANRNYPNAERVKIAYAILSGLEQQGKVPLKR
T2 sequence (Q48434 21-381 V231S): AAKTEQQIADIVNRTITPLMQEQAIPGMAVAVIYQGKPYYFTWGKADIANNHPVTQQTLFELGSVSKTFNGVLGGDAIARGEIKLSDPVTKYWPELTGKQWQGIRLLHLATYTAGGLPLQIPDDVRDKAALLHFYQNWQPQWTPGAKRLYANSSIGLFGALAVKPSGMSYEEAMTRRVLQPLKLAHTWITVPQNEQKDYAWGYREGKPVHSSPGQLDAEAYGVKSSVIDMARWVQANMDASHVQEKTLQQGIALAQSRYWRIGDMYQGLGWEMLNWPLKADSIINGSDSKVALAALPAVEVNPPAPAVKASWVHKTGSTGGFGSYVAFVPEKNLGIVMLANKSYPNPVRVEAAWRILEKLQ
ACT-7, sequence (B6V6L3 entry or part of it): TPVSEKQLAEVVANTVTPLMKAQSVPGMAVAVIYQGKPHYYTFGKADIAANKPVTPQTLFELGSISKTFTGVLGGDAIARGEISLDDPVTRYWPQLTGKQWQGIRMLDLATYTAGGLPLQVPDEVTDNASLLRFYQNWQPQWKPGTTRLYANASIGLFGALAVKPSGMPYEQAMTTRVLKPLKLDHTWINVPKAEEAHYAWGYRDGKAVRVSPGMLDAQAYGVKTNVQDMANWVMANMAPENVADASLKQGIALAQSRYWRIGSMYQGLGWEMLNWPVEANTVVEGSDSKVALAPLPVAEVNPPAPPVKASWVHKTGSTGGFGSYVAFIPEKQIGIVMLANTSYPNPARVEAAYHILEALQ
LAT-1, sequence (Q48443 entry or part of it): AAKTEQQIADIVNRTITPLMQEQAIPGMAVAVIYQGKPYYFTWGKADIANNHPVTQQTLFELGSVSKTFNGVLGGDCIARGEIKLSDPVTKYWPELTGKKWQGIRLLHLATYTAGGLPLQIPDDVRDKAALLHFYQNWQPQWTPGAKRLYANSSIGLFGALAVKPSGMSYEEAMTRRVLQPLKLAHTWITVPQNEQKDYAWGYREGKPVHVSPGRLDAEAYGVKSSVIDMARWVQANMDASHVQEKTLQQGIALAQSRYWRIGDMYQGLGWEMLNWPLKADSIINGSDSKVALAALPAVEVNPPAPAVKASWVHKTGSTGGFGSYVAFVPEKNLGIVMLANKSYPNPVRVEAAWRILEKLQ

With `NC(=O)[C@@H]1CC[C@@H]2CN1C(=O)N2OS(=O)(=O)O` [Avibactam, avibactam] the IC50 (CMY-2) was 610 nM, the IC50 (ADC-50; [1]) was 61000 nM and the IC50 (ADC-50; ADC-50, crude extract of E. coli TOP10 recombinant strain, mean of triplicate, listed as AVI) was > 13000 nM. For the same compound, the IC50 (FOX-5) was 1000 nM, the IC50 (CMY-42) was 650 nM and the IC50 (SRT-1) was 6700 nM. For the same compound, the IC50 (MOX-2) was 5600 nM, the IC50 (DHA-1) was 110 nM and the IC50 (LAT-1) was 400 nM. It also gave an IC50 (ACT-17) of 900 nM, an IC50 (ACT-7) of 800 nM and an IC50 (Ear-1) of 880 nM. For the same compound, the IC50 (ACC-1) was 250 nM, the IC50 (YRC-1) was 2100 nM and the IC50 (MIR-17) was 1000 nM.
With `O=C(O)[C@H]1/C(=C/CO)O[C@@H]2CC(=O)N21` [Clavulanic acid, clavulanic acid] the IC50 (CMY-2) was > 100000 nM, the IC50 (ADC-50; [1]) was > 100000 nM and the IC50 (PDC-5) was > 100000 nM. For the same compound, the IC50 (FOX-5) was > 100000 nM, the IC50 (CMY-42) was > 100000 nM and the IC50 (PDC-382) was > 100000 nM. For the same compound, the IC50 (PDC-1) was > 100000 nM, the IC50 (SRT-1) was > 100000 nM and the IC50 (MOX-2) was > 100000 nM. The IC50 (DHA-1) was > 100000 nM, the IC50 (LAT-1) was > 100000 nM and the IC50 (ACT-7) was > 100000 nM. The IC50 (Ear-1) was > 100000 nM, the IC50 (ACC-1) was > 100000 nM and the IC50 (YRC-1) was > 100000 nM. The IC50 (MIR-17) was > 100000 nM.
With `CC1=C[C@@H]2CN(C(=O)N2OS(=O)(=O)O)[C@@H]1C(N)=O` [Durlobactam, durlobactam] the IC50 (CMY-2) was 4 nM, the IC50 (ADC-50; [1]) was 170 nM and the IC50 (ADC-50; read-out: IC50 value, ADC-50 of A. baumannii) was 0.17 nM. It also gave an IC50 (PDC-5) of 13 nM, an IC50 (FOX-5) of 22 nM and an IC50 (CMY-42) of 11 nM. The IC50 (PDC-382) was 100 nM, the IC50 (PDC-1) was 9 nM and the IC50 (SRT-1) was 22 nM. The IC50 (MOX-2) was 55 nM, the MIC (E. coli TOP10) was 0.125 µg/mL and the IC50 (DHA-1) was 4 nM. For the same compound, the IC50 (LAT-1) was 5 nM, the IC50 (ACT-17) was 3 nM and the IC50 (ACT-7) was 4 nM. It also gave an IC50 (Ear-1) of 6 nM, an IC50 (ACC-1) of 5 nM and an IC50 (YRC-1) of 5 nM. For the same compound, the IC50 (MIR-17) was 5 nM.
With `Cn1cc[n+](C[C@@]2(C)[C@H](C(=O)[O-])N3C(=O)C[C@H]3S2(=O)=O)n1` [Enmetazobactam, enmetazobactam] the IC50 (CMY-2; CMY-2, crude extract of E. coli TOP10 recombinant strain, mean of triplicate, read-out: IC50) was 40000 nM, the IC50 (ADC-50; ADC-50, crude extract of E. coli TOP10 recombinant strain, mean of triplicate, read-out: IC50) was > 100000 nM and the “inhibition of ADC-50 (in words)” value (ADC-50; ADC-50 of A. baumannii) was “not significantly inhibited”. For the same compound, the IC50 (PDC-5; PDC-5, crude extract of E. coli TOP10 recombinant strain, mean of triplicate, read-out: IC50) was > 100000 nM, the IC50 (FOX-5; FOX-5, crude extract of E. coli TOP10 recombinant strain, mean of triplicate, read-out: IC50) was > 100000 nM and the IC50 (CMY-42; CMY-42, crude extract of E. coli TOP10 recombinant strain, mean of triplicate, read-out: IC50) was 64000 nM. For the same compound, the IC50 (PDC-382; PDC-382, crude extract of E. coli TOP10 recombinant strain, mean of triplicate, read-out: IC50) was > 100000 nM, the IC50 (PDC-1; PDC-1, crude extract of E. coli TOP10 recombinant strain, mean of triplicate, read-out: IC50) was > 100000 nM and the IC50 (SRT-1; read-out: IC50) was > 100000 nM. For the same compound, the IC50 (MOX-2; MOX-2, crude extract of E. coli TOP10 recombinant strain, mean of triplicate, read-out: IC50) was > 100000 nM, the IC50 (DHA-1; DHA-1, crude extract of E. coli TOP10 recombinant strain, mean of triplicate, read-out: IC50) was 26000 nM and the IC50 (LAT-1; LAT-1, crude extract of E. coli TOP10 recombinant strain, mean of triplicate, read-out: IC50) was 97000 nM. It also gave an IC50 (ACT-17; read-out: IC50) of 62000 nM, an IC50 (ACT-7; ACT-7, crude extract of E. coli TOP10 recombinant strain, mean of triplicate, read-out: IC50) of 43000 nM and an IC50 (Ear-1; Ear-1, crude extract of E. coli TOP10 recombinant strain, mean of triplicate, read-out: IC50) of 91000 nM. For the same compound, the IC50 (ACC-1; ACC-1, crude extract of E. coli TOP10 recombinant strain, mean of triplicate, read-out: IC50) was 39000 nM, the IC50 (YRC-1; YRC-1, crude extract of E. coli TOP10 recombinant strain, mean of triplicate, read-out: IC50) was > 100000 nM and the IC50 (MIR-17) was > 100000 nM.
`NCCONC(=O)[C@@H]1CC[C@@H]2CN1C(=O)N2OS(=O)(=O)O` [Nacubactam, nacubactam] was tested, and the IC50 (CMY-2) was 420 nM, the IC50 (ADC-50; [1]) was > 100000 nM and the “inhibition of ADC-50 (in words)” value (ADC-50; ADC-50 of A. baumannii) was “not significantly inhibited”. The IC50 (PDC-5) was 1200 nM, the IC50 (FOX-5) was 5300 nM and the IC50 (CMY-42) was 1700 nM. It also gave an IC50 (PDC-382) of 34000 nM, an IC50 (PDC-1) of 5100 nM and an IC50 (SRT-1) of 70000 nM. The IC50 (MOX-2) was 4100 nM, the MIC (E. coli TOP10) was 4 µg/mL and the IC50 (DHA-1) was 500 nM. It also gave an IC50 (LAT-1) of 290 nM, an IC50 (ACT-17) of 290 nM and an IC50 (ACT-7) of 370 nM. For the same compound, the IC50 (Ear-1) was 280 nM, the IC50 (ACC-1) was 450 nM and the IC50 (YRC-1) was 130 nM. It also gave an IC50 (MIR-17) of 600 nM.
